From ChEMBL document CHEMBL1201862, “PubChem BioAssay data set” (2004)
Calls of active or inactive are those of the source.

Experiments:
Coagulation factor XII = target: T1, Coagulation factor XII (Homo sapiens, UniProt P00748); format: functional;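 also: activated factor XIIa alpha cleaving a fluorogenic AMC peptide substrate; inhibitor potency from loss of enzyme activity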
T1 sequence (P00748 whole entry): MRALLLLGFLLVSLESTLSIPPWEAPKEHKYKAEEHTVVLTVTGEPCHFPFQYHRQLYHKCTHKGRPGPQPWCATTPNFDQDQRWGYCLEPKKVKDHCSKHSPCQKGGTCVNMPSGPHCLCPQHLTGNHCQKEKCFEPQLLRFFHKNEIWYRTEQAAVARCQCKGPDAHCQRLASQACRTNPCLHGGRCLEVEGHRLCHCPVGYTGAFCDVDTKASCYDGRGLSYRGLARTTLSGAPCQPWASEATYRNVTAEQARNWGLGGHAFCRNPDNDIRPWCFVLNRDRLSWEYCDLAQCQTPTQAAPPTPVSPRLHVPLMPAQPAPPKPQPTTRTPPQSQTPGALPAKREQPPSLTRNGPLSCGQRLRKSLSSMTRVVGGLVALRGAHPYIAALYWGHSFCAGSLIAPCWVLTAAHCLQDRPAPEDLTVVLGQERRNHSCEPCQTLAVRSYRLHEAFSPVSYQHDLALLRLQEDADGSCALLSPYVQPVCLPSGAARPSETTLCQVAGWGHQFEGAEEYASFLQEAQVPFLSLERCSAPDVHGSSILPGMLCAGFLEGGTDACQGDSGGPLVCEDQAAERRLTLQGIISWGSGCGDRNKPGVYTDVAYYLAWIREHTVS

[1] = NIH3T3 cell viability loss – ATP luminescence, mouse fibroblasts, counter-screen, dose response (AID 2010); format: functional, cell-based;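 also: cells exposed to compound for about 90 hours before reading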
[2] = HIV-1 Vif–A3G interaction blockers – biochemical, TR-FRET, GST-Vif 1-94, biotin-A3G peptide, dose response retest, primary screen (AID 1117319); format: functional;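 also: TR-FRET signal of purified GST-Vif binding a biotinylated A3G peptide; inhibitors lower the FRET signal by blocking Vif and A3G binding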
[3] = Trypanosoma cruzi growth suppression in host cells – NIH3T3 host cells, beta-gal luminescence, confirmation (AID 2044); format: functional, cell-based;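 also: intracellular parasites grown in NIH/3T3 mouse fibroblasts as host cells; luminescent beta-galactosidase reporter signal from transgenic T. cruzi replicating inside host cells; inhibitors lower the luminescence signal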
[4] = viability loss in Vero cells – cytotoxicity control for Vif-APOBEC3G degradation inhibitor project, dose response (AID 1117358); format: functional; details: Vero
INS1 = test: INS-1E survival protection against cytokine death – cell-based, luminescence, retest, dose response (AID 449756); format: functional; details: Rattus norvegicus;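 also: cell death triggered by IL-1 beta plus TNF-alpha plus IFN-gamma mixture; protective hits raise ATP signal compared with cytokine alone wells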
[5] = target: T2, Sphingosine 1-phosphate receptor 2 (Homo sapiens, UniProt O95136); test: Dose Response Cell Based Assay for Agonists of the S1P2 Receptor. [Related pubchem assays: 729, 736, 843 ]; format: functional
[6] = blockers of bursicon-stimulated LGR2 cAMP reporter – cell-based, HEK293, CRE-luciferase reporter, cherry pick, set 2, dose response (AID 743343); format: functional;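 also: transfected cells were stimulated with diluted bursicon conditioned medium after compound addition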
[7] = Late stage counterscreen results from the probe development effort to identify activators of signal transducer and activator of transcription 1 (STAT1): luminescence-based cell-based dose response assay to identify cytotoxic compounds.; format: functional
[8] = blockade of melanocortin 4 receptor signaling – cell-based, plate reader, cherry pick, counter-screen for LGR2 antagonist project, dose response (AID 743444); format: functional;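 also: transfected HEK 293 cells stimulated with alpha-MSH peptide; potency of inhibitors of the alpha-MSH evoked signal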
[9] = target: E3 ubiquitin-protein ligase Mdm2 (Homo sapiens, UniProt Q00987); test: MDM2-luc reporter signal enhancers, multi-concentration potency testing, MDM2 ubiquitin-protein ligase inhibitor program, whole-cell format, luminescence detection, 384-well microplate (AID 1394); format: functional;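 also: MDM2 E3 inhibitors raise luminescence so EC50 is for signal enhancement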
[10] = target: T2, Sphingosine 1-phosphate receptor 2; test: Dose Response Cell Based Assay for Antagonists of the S1P2 Receptor. [Related pubchem assays: 856, 736 ]; format: functional
Aminopeptidase N = target: T3, Aminopeptidase N (Plasmodium falciparum FcB1/Columbia, UniProt O96935); test: malaria alanyl aminopeptidase activity blockers – biochemical, fluorogenic H-Leu-NHMec substrate, 1536-well (AID 1445); parameters: species or system Plasmodium falciparum 3D7, 3D7
T3 sequence (O96935 whole entry): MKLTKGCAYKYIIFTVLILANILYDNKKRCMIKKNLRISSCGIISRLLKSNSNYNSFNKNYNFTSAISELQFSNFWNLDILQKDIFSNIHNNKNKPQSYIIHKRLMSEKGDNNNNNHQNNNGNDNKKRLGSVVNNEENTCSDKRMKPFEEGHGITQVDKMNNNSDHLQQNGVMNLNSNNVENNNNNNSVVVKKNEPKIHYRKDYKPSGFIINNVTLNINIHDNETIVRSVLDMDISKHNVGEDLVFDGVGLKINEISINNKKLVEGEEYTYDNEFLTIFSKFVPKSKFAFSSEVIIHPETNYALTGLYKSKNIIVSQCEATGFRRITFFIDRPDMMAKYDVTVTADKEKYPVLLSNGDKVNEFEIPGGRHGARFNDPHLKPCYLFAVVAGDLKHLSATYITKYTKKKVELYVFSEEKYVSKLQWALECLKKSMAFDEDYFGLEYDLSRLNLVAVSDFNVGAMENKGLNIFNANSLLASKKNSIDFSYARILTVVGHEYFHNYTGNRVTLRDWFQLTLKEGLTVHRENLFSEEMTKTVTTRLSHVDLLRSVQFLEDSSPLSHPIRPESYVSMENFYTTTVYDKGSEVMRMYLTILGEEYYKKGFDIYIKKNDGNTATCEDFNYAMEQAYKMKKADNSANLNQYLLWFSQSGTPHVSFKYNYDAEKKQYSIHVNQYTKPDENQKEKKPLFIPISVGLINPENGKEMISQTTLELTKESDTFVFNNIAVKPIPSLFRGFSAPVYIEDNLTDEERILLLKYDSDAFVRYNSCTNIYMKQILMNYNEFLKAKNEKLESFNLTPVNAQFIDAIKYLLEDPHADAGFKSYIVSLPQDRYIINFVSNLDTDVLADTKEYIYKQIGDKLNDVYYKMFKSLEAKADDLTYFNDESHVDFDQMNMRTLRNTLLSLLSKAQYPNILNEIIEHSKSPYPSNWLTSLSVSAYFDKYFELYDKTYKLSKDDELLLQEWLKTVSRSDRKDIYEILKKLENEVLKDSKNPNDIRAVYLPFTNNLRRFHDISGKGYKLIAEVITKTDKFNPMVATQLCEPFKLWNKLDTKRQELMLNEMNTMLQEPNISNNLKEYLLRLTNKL

[11] = target: Bifunctional protein GlmU (Mycobacterium tuberculosis, UniProt P9WMN3); test: Inhibitors of Mycobacterial Glucosamine-1-phosphate acetyl transferase (GlmU). Secondary screen.; parameters: species or system Mycobacterium tuberculosis H37Rv
NADPH oxidase 1 = NADPH oxidase 1 (Homo sapiens, UniProt Q9Y5S8); test: Late-stage luminescence-based cell-based dose response assay to identify inhibitors of NADPH oxidase 1 (NOX1): Synthesized analogs 2.; format: functional
Cytochrome P450 2C19 = Cytochrome P450 2C19 (Homo sapiens, UniProt P33261); test: qHTS Assay for Inhibitors and Substrates of Cytochrome P450 2C19. [Related pubchem assays: 410 ]; format: ADME; details: read-out: Potency
Cytochrome P450 2C9 = Cytochrome P450 2C9 (Homo sapiens, UniProt P11712); details: Potency
Cytochrome P450 2C9, sequence (P11712 whole entry): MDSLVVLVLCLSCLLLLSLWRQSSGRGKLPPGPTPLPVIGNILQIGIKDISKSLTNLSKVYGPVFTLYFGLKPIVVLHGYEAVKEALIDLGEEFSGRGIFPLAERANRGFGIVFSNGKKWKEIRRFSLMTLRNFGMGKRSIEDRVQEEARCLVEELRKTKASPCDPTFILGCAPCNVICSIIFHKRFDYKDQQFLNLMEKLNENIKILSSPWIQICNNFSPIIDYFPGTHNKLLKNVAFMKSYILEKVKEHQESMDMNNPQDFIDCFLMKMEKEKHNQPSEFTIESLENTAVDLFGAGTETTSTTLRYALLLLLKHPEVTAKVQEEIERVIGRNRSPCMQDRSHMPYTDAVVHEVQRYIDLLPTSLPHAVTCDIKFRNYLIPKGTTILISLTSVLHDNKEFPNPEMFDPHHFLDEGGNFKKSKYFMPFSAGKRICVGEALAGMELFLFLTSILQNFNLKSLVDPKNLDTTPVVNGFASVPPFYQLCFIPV

T2 sequence (O95136 whole entry): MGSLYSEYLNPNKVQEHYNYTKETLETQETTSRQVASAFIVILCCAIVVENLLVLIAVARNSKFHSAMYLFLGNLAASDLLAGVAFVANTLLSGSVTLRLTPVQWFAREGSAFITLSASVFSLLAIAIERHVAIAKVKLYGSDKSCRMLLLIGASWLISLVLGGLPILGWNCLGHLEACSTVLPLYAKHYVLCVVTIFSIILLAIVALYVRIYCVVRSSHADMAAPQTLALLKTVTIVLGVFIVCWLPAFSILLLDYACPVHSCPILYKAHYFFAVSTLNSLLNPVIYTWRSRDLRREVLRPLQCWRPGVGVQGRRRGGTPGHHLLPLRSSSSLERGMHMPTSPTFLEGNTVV
Bifunctional protein GlmU, sequence (P9WMN3 whole entry): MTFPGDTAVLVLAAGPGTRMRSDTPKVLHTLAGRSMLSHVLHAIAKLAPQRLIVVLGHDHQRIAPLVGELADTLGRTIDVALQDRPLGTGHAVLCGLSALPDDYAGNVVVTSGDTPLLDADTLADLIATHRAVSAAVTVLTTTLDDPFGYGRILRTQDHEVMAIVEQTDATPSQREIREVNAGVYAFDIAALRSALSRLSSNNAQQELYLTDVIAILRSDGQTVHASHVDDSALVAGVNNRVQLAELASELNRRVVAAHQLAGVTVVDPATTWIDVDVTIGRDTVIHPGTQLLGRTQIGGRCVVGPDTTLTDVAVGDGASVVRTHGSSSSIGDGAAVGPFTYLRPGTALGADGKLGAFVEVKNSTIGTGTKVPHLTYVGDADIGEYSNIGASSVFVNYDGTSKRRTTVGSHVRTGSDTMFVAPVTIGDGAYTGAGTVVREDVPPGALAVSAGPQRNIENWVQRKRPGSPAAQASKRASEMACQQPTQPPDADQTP
NADPH oxidase 1, sequence (Q9Y5S8 whole entry): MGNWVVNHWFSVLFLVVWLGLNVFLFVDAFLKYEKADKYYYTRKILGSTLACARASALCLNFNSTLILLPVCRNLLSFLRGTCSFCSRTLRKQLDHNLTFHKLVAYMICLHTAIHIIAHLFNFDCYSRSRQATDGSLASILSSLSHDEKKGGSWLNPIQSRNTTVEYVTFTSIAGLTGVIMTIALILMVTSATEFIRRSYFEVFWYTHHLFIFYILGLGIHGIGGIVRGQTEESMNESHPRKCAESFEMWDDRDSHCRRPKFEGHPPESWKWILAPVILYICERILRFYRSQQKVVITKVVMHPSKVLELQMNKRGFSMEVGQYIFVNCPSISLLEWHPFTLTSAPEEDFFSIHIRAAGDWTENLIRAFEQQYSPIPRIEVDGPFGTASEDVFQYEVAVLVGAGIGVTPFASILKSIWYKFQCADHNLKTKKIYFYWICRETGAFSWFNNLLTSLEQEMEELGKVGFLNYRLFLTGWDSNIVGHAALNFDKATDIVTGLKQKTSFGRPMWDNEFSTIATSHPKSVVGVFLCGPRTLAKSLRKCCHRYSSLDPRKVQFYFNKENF
E3 ubiquitin-protein ligase Mdm2, sequence (Q00987 whole entry): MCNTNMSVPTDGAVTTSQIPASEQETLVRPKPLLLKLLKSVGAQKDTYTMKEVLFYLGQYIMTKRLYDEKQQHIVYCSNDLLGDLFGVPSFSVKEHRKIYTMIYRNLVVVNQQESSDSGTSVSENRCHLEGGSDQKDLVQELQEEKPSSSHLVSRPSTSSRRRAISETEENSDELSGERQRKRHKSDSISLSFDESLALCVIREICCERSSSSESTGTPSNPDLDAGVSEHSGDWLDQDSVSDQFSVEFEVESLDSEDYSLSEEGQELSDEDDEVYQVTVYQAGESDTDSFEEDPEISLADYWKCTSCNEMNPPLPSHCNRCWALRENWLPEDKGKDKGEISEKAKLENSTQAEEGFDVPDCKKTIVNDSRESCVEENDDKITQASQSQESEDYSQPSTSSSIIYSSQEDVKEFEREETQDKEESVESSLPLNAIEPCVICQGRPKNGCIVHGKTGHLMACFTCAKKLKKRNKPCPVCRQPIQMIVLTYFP
Cytochrome P450 2C19, sequence (P33261 whole entry): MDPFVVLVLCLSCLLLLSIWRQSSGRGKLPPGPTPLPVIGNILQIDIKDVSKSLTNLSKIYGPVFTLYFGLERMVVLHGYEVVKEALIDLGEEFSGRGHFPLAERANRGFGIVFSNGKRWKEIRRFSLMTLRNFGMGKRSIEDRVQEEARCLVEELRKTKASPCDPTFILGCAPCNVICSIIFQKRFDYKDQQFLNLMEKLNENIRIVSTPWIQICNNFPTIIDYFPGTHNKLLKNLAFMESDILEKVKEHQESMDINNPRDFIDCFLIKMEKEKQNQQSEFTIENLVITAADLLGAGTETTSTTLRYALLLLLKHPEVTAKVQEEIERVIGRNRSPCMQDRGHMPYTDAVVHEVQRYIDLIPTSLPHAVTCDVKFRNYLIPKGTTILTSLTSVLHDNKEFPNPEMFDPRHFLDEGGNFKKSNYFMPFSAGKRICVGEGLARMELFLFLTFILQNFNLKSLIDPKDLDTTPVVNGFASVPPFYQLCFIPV

Cc1ccccc1N1CCN(Cc2c[nH]c3ccccc23)CC1
IC50 (Coagulation factor XII): > 50 µM (inactive) | EC50 [1]: > 60 µM (not active) | IC50 [2]: > 100 µM (active) | EC50 [3]: 0.623 µM (active) | CC50 [4]: > 40 µM (active) | AC50 (INS1): 7.61 µM (active)

Oc1cccc(C(=S)N2CCN(Cc3ccccc3)CC2)c1
EC50 [5]: > 50 µM (not active)

COc1ccc(-c2cc(C)nc3c(-c4ccccc4)cnn23)cc1
AC50 [6]: 15.9 µM (active) | IC50 [7]: > 55.7 µM (not active) | AC50 [8]: 20.1 µM (active)

CC(C)Oc1ccc(C(=O)NC(=S)N2CCOCC2)cc1
EC50 [9]: 25 µM (not active)

CCOC(=O)C1C(=O)CC(C)(O)C(C(=O)OCC)C1c1ccccc1 (configuration not stated)
IC50 [10]: > 50 µM (not active)

O=C(CCCN1C(=O)/C(=C/c2ccco2)SC1=S)Nc1ccccc1C(=O)O
IC50 (Aminopeptidase N): 102 µM (active) | IC50 [11]: 86 µM (active)

CC(=O)c1ccc2c(c1)N(C(=O)Nc1ccccc1)c1ccccc1S2
IC50 (NADPH oxidase 1): 1.56 µM (active)

CC(C)C[C@@H](CC(=O)N[C@@H](CCCN)CC(=O)N[C@@H]1CCCC[C@H]1C(=O)N[C@H](CC(=O)N[C@@H](CCC(=O)O)CC(=O)O)Cc1ccccc1)NC(=O)[C@@H]1CCCC[C@H]1N
AC50 (Cytochrome P450 2C19): 39.8 µM (inconclusive) | AC50 (Cytochrome P450 2C9): 3.98 µM (inconclusive)
